Experimental data published in patent publication US5756301A, “Endogenous taxol-like substance in human serum, monoclonal antibodies directed thereto and methods of assaying therefor” (The Trustees of Columbia University in the City of New York, priority 1993, dated 1998).
“Also recorded” adds a separate entry of the source. Like-named read-outs stand apart in the source and are kept apart here.

Tests used:
KB cells = details: cited from earlier work
[1] = system: rabbit anti-taxol antiserum; experiment: RIA: inhibition of binding of rabbit anti-taxol antiserum to [3H]taxol; details: for Affinity of rabbit antibodies (in words): [3H]taxol
Experimental: (§1) Bound ligand was separated from free by the addition of 100 ul of a 2.5% dextran-coated charcoal solution in RIA buffer, incubation for 3 min at 4° C. and centrifugation in an Eppendorf centrifuge for 2 min.

29B7B3C = experiment: Competitive ELISA, inhibition of binding of 29B7B3C to taxol-RSA; design: species or system mouse
Experimental: (§2) Spleen cells were fused with nonsecreting myeloma cells P3 ×63-Ag8.653 (13), according to the method of Sharon et al. (14). […] Clones positive by competitive ELISA were subcloned twice by limiting dilution. Ascites were obtained by injecting 10^6 to 10^7 cells i.p. into BALB/c mice that had been primed with IFA i.p. 5 days before.
(§3) The wells were washed with PBS-T-20 three times and blocked with 200 ul of PBS, containing 1% fetal calf serum, for 1 hour at 37° C. […] After washing four times with PBS-T-20, bound antibodies were detected with 100 ul of 1/3000 dilution of peroxidase-labeled goat anti-mouse IgG+IgM in PBS-T-20 for 1 hour at 37° C. Color was developed and absorbance was measured as described above.

69E4A8E = experiment: Competitive ELISA, inhibition of binding of 69E4A8E to taxol-RSA; design: species or system mouse
Experimental: as §2, §3

[2] = system: antibodies specific for taxol (one rabbit antiserum and two monoclonal antibodies); experiment: Binding to all of the antibodies (rabbit antiserum, 69E4A8E, 29B7B3C); design: species or system rabbit; mouse; details: 69E4A8E and 29B7B3C
Experimental: as §3, with “Polystyrene microplates were coated with 100 ul of taxol-RSA (250ng/ml) in 0.1 M sodium bicarbonate, pH=9.3, overnight at 4° C. The” for “The”
as §1

[3] = read-out: Peak taxol level in plasma; 200 to 250 mg/m^2 infusion over 24 hours; cited from earlier work
[4] = system: ovarian and breast cancer and melanoma; details: clinical trials; cited from earlier work
[5] = clinical trials; cited from earlier work
microtubules / tubulin = details: cited from earlier work
tumor = details: cited from earlier work
[6] = relative to taxol = 1, data from reference 10

In the case of `CC[Si](CC)(CC)O[C@@H](C(=O)O[C@H]1C[C@@]2(O)[C@@H](OC(=O)c3ccccc3)[C@@H]3[C@]4(OC(C)=O)CO[C@@H]4C[C@H](O)[C@@]3(C)C(=O)[C@H](OC(C)=O)C(=C1C)C2(C)C)[C@@H](NC(=O)c1ccccc1)c1ccccc1` [2'-(Triethylsiyl) taxol, 2'-(triethylsilyl)taxol], the “Relative IC50, cytotoxicity (KB cells)” value (KB cells; human) is listed as 30,000.

With `CC(=O)O[C@H]1C(=O)[C@@]2(C)[C@H]([C@H](OC(=O)c3ccccc3)[C@]3(O)C[C@H](OC(=O)[C@H](O)[C@@H](NC(=O)c4ccccc4)c4ccccc4)C(C)=C1C3(C)C)[C@]1(OC(C)=O)CO[C@@H]1C[C@@H]2O` [Taxol] the “Affinity of rabbit antibodies (in words)” value ([1]; RIA) was “almost equal affinity”, the “Binding affinity of 29B7B3C (in words)” value (29B7B3C) was “higher binding affinities” and the IC50 (29B7B3C; ELISA, 29B7B3C) was roughly 100 nM. The “Binding affinity / recognition by 69E4A8E (in words)” value (“Binding affinity / recognition” for short) (69E4A8E) was “higher binding affinities”, the IC50 (69E4A8E; ELISA, 69E4A8E) was roughly 100 nM and the “Binding by all antibodies (in words)” value [2] was “bind taxol and active derivatives well”. For the same compound, the Cmax [3] was greater than 600 nM, the Clinical efficacy [4] was “affective in the treatment of ovarian (5, 6) and breast cancer (7) and melanoma (8)” and the Side effects [5] was “neutropenia, hypersensitivity reactions mucositis, neurological and possible cardiac toxicity”. For the same compound, the “Effect on microtubule assembly / tubulin polymerization” value (microtubules / tubulin) was “promote and stabilize microtubule assembly and inhibit disassembly to tubulin” and the Antitumor activity (tumor) was “shown to have antitumor activity”.

In the case of `CC(=O)OC[C@@]1(O)[C@H]2[C@H](OC(=O)c3ccccc3)[C@]3(O)C[C@H](OC(=O)[C@H](O)[C@@H](NC(=O)c4ccccc4)c4ccccc4)C(C)=C([C@@H](OC(C)=O)C(=O)[C@]2(C)[C@@H](O)C[C@@H]1O)C3(C)C` [20-acetoxy-4-deacetyl-5-epi-20,0-secotaxol], the “Affinity lower than taxol (orders of magnitude)” value ([1]; RIA, lower than taxol) is given as “about 3 orders of magnitude” and the “Relative IC50, cytotoxicity (KB cells)” value (KB cells; [6]) is given as > 100,000.

In the case of `CC(=O)O[C@@]12CO[C@@H]1C[C@H](O)[C@@]1(C)C(=O)[C@H](O)C3=C(C)[C@@H](OC(=O)[C@H](O)[C@@H](NC(=O)OC(C)(C)C)c4ccccc4)C[C@@](O)([C@@H](OC(=O)c4ccccc4)[C@H]21)C3(C)C` [Taxotere], the “Affinity of rabbit antibodies (in words)” value ([1]; RIA) is reported as “inability of the rabbit serum and 69E4A8E to recognize taxotere”, the “Affinity lower than taxol (fold)” value ([1]; RIA, lower affinity than taxol) is reported as 100 fold and the “Binding affinity of 29B7B3C (in words)” value (29B7B3C; competitive ELISA) is reported as “binds taxotere as well as it does taxol”. For the same compound, the “Binding affinity / recognition” value (69E4A8E; competitive ELISA) was “recognized poorly; also recorded: inability of the rabbit serum and 69E4A8E to recognize taxotere”.

For `C/C=C(\C)C(=O)N[C@@H](c1ccccc1)[C@@H](O)C(=O)O[C@H]1C[C@@]2(O)[C@@H](OC(=O)c3ccccc3)[C@@H]3[C@]4(OC(C)=O)CO[C@@H]4C[C@H](O)[C@@]3(C)C(=O)[C@H](OC(C)=O)C(=C1C)C2(C)C` [Cephalomannine, cephalomannine], the “Affinity of rabbit antibodies (in words)” value ([1]; RIA) is listed as “almost equal affinity”, the “Binding affinity of 29B7B3C (in words)” value (29B7B3C; competitive ELISA) is listed as “higher binding affinities” and the “Relative IC50, cytotoxicity (KB cells)” value (KB cells; [6]) is listed as 3.2.

For `CC(=O)O[C@H]1C(=O)[C@]2(C)[C@H](O)C[C@H]3OC[C@@]3(OC(C)=O)[C@H]2[C@H](OC(=O)c2ccccc2)[C@]2(O)C[C@H](OC(=O)[C@H](O)[C@@H](NC(=O)c3ccccc3)c3ccccc3)C(C)=C1C2(C)C` [7-Epitaxol, 7-epitaxol], the “Binding affinity of 29B7B3C (in words)” value (29B7B3C; competitive ELISA) was “higher binding affinities” and the “Binding affinity / recognition” value (69E4A8E; competitive ELISA) was “higher binding affinities”.

In the case of `CC[C@]1(O)C[C@@H]2CN(CCc3c([nH]c4ccccc34)[C@@](C(=O)OC)(c3cc4c(cc3OC)N(C)[C@H]3[C@@](O)(C(=O)OC)[C@H](OC(C)=O)[C@]5(CC)C=CCN6CC[C@]43[C@@H]65)C2)C1` [vinblastine], the “Effect on microtubule assembly / tubulin polymerization” value (microtubules / tubulin) is listed as “inhibit tubulin polymerization”.

For `CC(=O)O[C@H]1C(=O)[C@@]2(C)[C@H]([C@H](OC(=O)c3ccccc3)[C@]3(O)C[C@H](O)C(C)=C1C3(C)C)[C@]1(OC(C)=O)CO[C@@H]1C[C@@H]2O` [Baccatin III, baccatin III], the “Affinity lower than taxol (orders of magnitude)” value [1] is listed as “about 3 orders of magnitude” and the “Relative IC50, cytotoxicity (KB cells)” value (KB cells; human) is listed as 1,700.

In the case of `COc1cc([C@@H]2c3cc4c(cc3[C@H](O)[C@H]3COC(=O)[C@H]23)OCO4)cc(OC)c1OC` [podophyllotoxin], the “Effect on microtubule assembly / tubulin polymerization” value (microtubules / tubulin) is given as “inhibit tubulin polymerization”.

In the case of `CC(=O)O[C@@]12CO[C@@H]1C[C@H](O)[C@@]1(C)C(=O)[C@H](O)C3=C(C)[C@@H](O)C[C@@](O)([C@@H](OC(=O)c4ccccc4)[C@H]21)C3(C)C` [10-deacetylbaccatin III], the “Relative IC50, cytotoxicity (KB cells)” value (KB cells; human) is given as 400.
